Test system: barnyard grass (Eo)
Assay: Test Example 1: herbicidal effects by flooded paddy field treatment;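 for Herbicidal effect index, Eo: 0-5 growth inhibition grade; 5 = over 90%; 4 = 70-90%; 3 = 50-70%; 2 = 30-50%; 1 = 10-30%; 0 = under 10%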;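 for Herbicidal effect index, Mo: 0-5 growth inhibition grade; 5 = over 90%; 4 = 70-90%; 3 = 50-70%; 2 = 30-50%; 1 = 10-30%; 0 = under 10%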
Type: in vivo
Design: herbicidal effects, Eo (barnyard grass):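 0-5 growth inhibition grade; 5 = over 90%; 4 = 70-90%; 3 = 50-70%; 2 = 30-50%; 1 = 10-30%; 0 = under 10%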
Settings: dose 100 g active ingredient per 10 ares, examined on the 21st day after treatment, standards of Table 44
Procedure: (§1) In a 100 cm^2 plastic pot, paddy field soil was filled and paddled. Then, seeds of barnyard grass (Eo) and monochoria (Mo) were sown, and water was introduced to a depth of 3 cm. Next day, a wettable powder prepared in accordance with Formulation Example 1 was diluted with water and dropwise applied to the water surface. The dose was 100 g of the active ingredient per 10 ares. Thereafter, cultivation was carried out in a green house, and on the 21st day after the treatment, the herbicidal effects were examined in accordance with the standards as identified in Table 44.

| SMILES | herbicidal effects, Eo (barnyard grass) |
| --- | --- |
| CSCC(c1cncnc1C(F)(F)F)N(C)C(=O)Cc1ccc(C)cc1 (racemic) [1-421] | 5 |
| CC(C)C(c1cncnc1C(F)(F)F)N(C)C(=O)Oc1ccc(Cl)cc1 (racemic) [1-178] | 5 |
| CSCC(c1cncnc1C(F)(F)F)N(C)C(=O)Cc1ccc(Br)cc1 (racemic) [1-415] | 5 |
| CSC(C(=O)N(C)C(c1cncnc1C(F)(F)F)C(C)C)c1ccc(Cl)cc1 (mixture of isomers) [Compound 1-154] | 5 |
| Cc1ccc(CC(=O)N(C)C(C)c2cncnc2C(C)(C)C)cc1 (racemic) [1-191] | 5 |
| CSCC(c1cncnc1C(F)(F)F)N(C)C(=O)Cc1ccc(F)cc1 (racemic) [1-413] | 5 |
| CC(C)C(c1cncnc1C(F)(F)Cl)N(C)C(=O)Oc1cccc2ccccc12 (racemic) [2-80] | 5 |
| COc1ccc(OC(=O)N(C)C(c2cncnc2C(F)(F)Cl)C(C)C)cc1 (racemic) [1-637] | 5 |
| CSCC(c1cncnc1C(F)(F)F)N(C)C(=O)Cc1ccc(Cl)cc1F (racemic) [1-422] | 5 |

Same assay, conditions: dose 100 gai/10a, examined on 21st day after treatment, index 0-5 per Table 44

| SMILES | Herbicidal effect index, Eo |
| --- | --- |
| CN(C(=O)Cc1ccc(Cl)cc1)C(c1cncnc1C(F)(F)Cl)C1CC1 (racemic) [Compound 1-94] | 5 |
| CC(C)C(c1cncnc1C(F)(F)Cl)N(C)C(=O)Oc1ccccc1 (racemic) [Compound 1-19] | 5 |

Test system: barnyard grass (Ec)
Assay: Test Example 2: herbicidal effects by upland soil treatment
Type: in vivo
Design: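 0-5 growth inhibition grade; 5 = over 90%; 4 = 70-90%; 3 = 50-70%; 2 = 30-50%; 1 = 10-30%; 0 = under 10%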
Settings: dose 100 g active ingredient per 10 ares, examined on the 21st day after treatment
Procedure: In a 80 cm^2 plastic pot, upland soil was filled, and seeds of barnyard grass (Ec) and green foxtail (Se) were sown and covered with soil. A wettable powder prepared in accordance with Formulation Example 1 was diluted with water and uniformly applied to the soil surface by means of a small size spray at a rate of 100 l per 10 ares, so that the dose of the active ingredient would be 100 g per 10 ares. Thereafter, cultivation was carried out in a green house, and on the 21st day after the treatment, the herbicidal effects were examined in accordance with the standards as identified in Table 44.

| SMILES | Ec (herbicidal effects, index) |
| --- | --- |
| C#CCN(C(=O)Cc1ccc(Cl)cc1)C(c1cncnc1CCC)C(C)C (racemic) [1-618] | 5 |
| CC(C)C(c1cncnc1C(F)(F)F)N(C)C(=O)COc1nnc(C(F)(F)F)s1 (racemic) [2-47] | 4 |
| CC(C)c1ncncc1C(C(C)C)N(C)C(=O)Nc1ccccc1 (racemic) [1-326] | 4 |
| Cc1ccc(OC(=O)N(C)C(c2cncnc2C(F)(F)Cl)C(C)C)cc1 (racemic) [1-636] | 4 |
| CCc1ncncc1C(CC)N(C)C(=O)Oc1ccc(Cl)cc1 (racemic) [1-646] | 4 |
| C#CCN(C(=O)Cc1ccc(Cl)cc1)C(c1cncnc1C(C)C)C(C)C (racemic) [1-623] | 5 |
| C#CCN(C(=O)Cc1ccccc1)C(c1cncnc1CCC)C(C)C (racemic) [1-616] | 5 |
| CON=Cc1ncncc1C(C(C)C)N(C)C(=O)OCc1ccccc1 (racemic) [1-471] | 5 |
| CON=CC(c1cncnc1C(C)C)N(C)C(=O)OCc1ccccc1 (racemic) [1-466] | 4 |
| C#CCN(C(=O)Cc1ccccc1)C(c1cncnc1C(C)C)C(C)C (racemic) [1-621] | 5 |
| CC(C)c1ncncc1C(C=NO)N(C)C(=O)OCc1ccccc1 (racemic) [1-531] | 4 |
| COC(OC)c1ncncc1C(C(C)C)N(C)C(=O)C(C)c1ccc(Cl)cc1 (mixture of isomers) [1-625] | 4 |
| CC(C)C(c1cncnc1C=O)N(C)C(=O)Cc1ccc(F)cc1 (stereo not shown) [Compound 1-523, N-[1-(4-formylpyrimidin-5-yl)-2-methylpropyl]-N-methyl-4-fluorophenylacetamide] | 4 |
| C#CCN(C(=O)Cc1ccc(F)cc1)C(c1cncnc1C(F)(F)F)C(C)(C)C (racemic) [1-620] | 5 |
| CON(C(=O)Cc1ccccc1)C(c1cncnc1C(F)(F)F)C(C)C (racemic) [1-332] | 5 |

Test system: monochoria (Mo)
Assay: Test Example 1: herbicidal effects by flooded paddy field treatment;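 for Herbicidal effect index, Eo: 0-5 growth inhibition grade; 5 = over 90%; 4 = 70-90%; 3 = 50-70%; 2 = 30-50%; 1 = 10-30%; 0 = under 10%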;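 for Herbicidal effect index, Mo: 0-5 growth inhibition grade; 5 = over 90%; 4 = 70-90%; 3 = 50-70%; 2 = 30-50%; 1 = 10-30%; 0 = under 10%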
Type: in vivo
Design: herbicidal effects, Mo (monochoria):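 0-5 growth inhibition grade; 5 = over 90%; 4 = 70-90%; 3 = 50-70%; 2 = 30-50%; 1 = 10-30%; 0 = under 10%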
Settings: dose 100 g active ingredient per 10 ares, examined on the 21st day after treatment, standards of Table 44
Procedure: as §1

| SMILES | herbicidal effects, Mo (monochoria) |
| --- | --- |
| CSCC(c1cncnc1C(F)(F)F)N(C)C(=O)Cc1ccc(C)cc1 (racemic) [1-421] | 5 |
| CC(C)C(c1cncnc1C(F)(F)F)N(C)C(=O)Oc1ccc(Cl)cc1 (racemic) [1-178] | 4 |
| CSCC(c1cncnc1C(F)(F)F)N(C)C(=O)Cc1ccc(Br)cc1 (racemic) [1-415] | 5 |
| CSC(C(=O)N(C)C(c1cncnc1C(F)(F)F)C(C)C)c1ccc(Cl)cc1 (mixture of isomers) [Compound 1-154] | 5 |
| Cc1ccc(CC(=O)N(C)C(C)c2cncnc2C(C)(C)C)cc1 (racemic) [1-191] | 5 |
| CSCC(c1cncnc1C(F)(F)F)N(C)C(=O)Cc1ccc(F)cc1 (racemic) [1-413] | 5 |
| CC(C)C(c1cncnc1C(F)(F)Cl)N(C)C(=O)Oc1cccc2ccccc12 (racemic) [2-80] | 4 |
| COc1ccc(OC(=O)N(C)C(c2cncnc2C(F)(F)Cl)C(C)C)cc1 (racemic) [1-637] | 5 |
| CSCC(c1cncnc1C(F)(F)F)N(C)C(=O)Cc1ccc(Cl)cc1F (racemic) [1-422] | 5 |

Same assay, conditions: dose 100 gai/10a, examined on 21st day after treatment, index 0-5 per Table 44

| SMILES | Herbicidal effect index, Mo |
| --- | --- |
| CN(C(=O)Cc1ccc(Cl)cc1)C(c1cncnc1C(F)(F)Cl)C1CC1 (racemic) [Compound 1-94] | 5 |
| CC(C)C(c1cncnc1C(F)(F)Cl)N(C)C(=O)Oc1ccccc1 (racemic) [Compound 1-19] | 5 |
